Measurements: ChEMBL document CHEMBL1949642 (Bioorg Med Chem Lett, 2012)

Legend:
[1] = target: C-C chemokine receptor type 5 (Homo sapiens, UniProt P51681); experiment: Displacement of [125I]MIP-1alpha from human recombinant CCR5 expressed in CHO cells; format: cell-based
[2] = Intrinsic clearance in human liver microsomes
[3] = Lipophilicity, log D of the compound at pH 7.4; conditions: buffer
[4] = target: Voltage-gated inwardly rectifying potassium channel KCNH2 (Homo sapiens, UniProt Q12809); experiment: Displacement of 3,7-Bis[2-(4-nitro[3,5-3H]phenyl)ethyl]-3,7-diazabicyclo[3.3.1]nonane from human ERG expressed in HEK cells after 3 hrs
Voltage-gated inwardly rectifying potassium channel KCNH2, sequence (Q12809 whole entry): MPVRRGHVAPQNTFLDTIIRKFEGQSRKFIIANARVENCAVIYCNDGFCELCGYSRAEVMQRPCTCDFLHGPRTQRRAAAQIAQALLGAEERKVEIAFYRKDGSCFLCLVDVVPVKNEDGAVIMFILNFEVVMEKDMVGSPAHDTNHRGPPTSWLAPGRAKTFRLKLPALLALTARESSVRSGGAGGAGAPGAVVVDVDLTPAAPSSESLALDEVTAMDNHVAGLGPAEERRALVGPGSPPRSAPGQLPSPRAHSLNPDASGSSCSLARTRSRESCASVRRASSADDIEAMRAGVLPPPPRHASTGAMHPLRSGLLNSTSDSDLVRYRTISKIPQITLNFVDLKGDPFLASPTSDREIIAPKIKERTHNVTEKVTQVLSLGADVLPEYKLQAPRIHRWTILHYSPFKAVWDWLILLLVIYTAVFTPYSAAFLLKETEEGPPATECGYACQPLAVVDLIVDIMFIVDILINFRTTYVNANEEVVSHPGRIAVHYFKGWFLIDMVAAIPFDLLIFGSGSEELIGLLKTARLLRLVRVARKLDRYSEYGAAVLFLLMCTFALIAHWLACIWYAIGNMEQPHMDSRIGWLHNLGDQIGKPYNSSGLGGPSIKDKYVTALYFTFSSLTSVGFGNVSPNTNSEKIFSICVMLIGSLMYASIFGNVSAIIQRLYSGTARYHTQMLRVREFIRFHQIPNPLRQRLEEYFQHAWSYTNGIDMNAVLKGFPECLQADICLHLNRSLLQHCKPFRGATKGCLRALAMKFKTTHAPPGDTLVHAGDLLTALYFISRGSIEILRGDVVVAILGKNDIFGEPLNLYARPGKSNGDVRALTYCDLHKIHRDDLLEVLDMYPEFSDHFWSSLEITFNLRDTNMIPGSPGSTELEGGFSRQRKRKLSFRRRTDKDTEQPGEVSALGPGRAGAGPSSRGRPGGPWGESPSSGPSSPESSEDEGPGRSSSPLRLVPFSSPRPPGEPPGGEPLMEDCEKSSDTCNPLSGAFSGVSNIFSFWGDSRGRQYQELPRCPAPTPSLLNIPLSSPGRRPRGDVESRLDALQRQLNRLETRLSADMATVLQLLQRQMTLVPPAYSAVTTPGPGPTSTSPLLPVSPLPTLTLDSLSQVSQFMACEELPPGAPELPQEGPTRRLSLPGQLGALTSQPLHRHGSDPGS

[5] = Clearance in rat at 1 to 2 mg/kg, iv; format: ADME, organism-based; design: dose 1-2 mg/kg, route intravenous; conditions: in vivo
[6] = Volume of distribution at steady state in rat at 1 to 2 mg/kg, iv; format: ADME, organism-based; design: dose 1-2 mg/kg, route intravenous; conditions: in vivo, read-out: Vdss
[7] = Half life in rat at 1 to 2 mg/kg, iv; format: ADME, organism-based; design: dose 1-2 mg/kg, route intravenous; conditions: in vivo
[8] = Oral bioavailability in rat at 2 to 5 mg/kg; format: ADME, organism-based; conditions: in vivo
[9] = Clearance in male dog at 1 to 2 mg/kg, iv; format: ADME, organism-based, Canis lupus familiaris; design: dose 1-2 mg/kg, route intravenous; conditions: in vivo
[10] = Volume of distribution at steady state in male dog at 1 to 2 mg/kg, iv; format: ADME, organism-based, Canis lupus familiaris; design: dose 1-2 mg/kg, route intravenous; conditions: in vivo, read-out: Vdss
[11] = Half life in male dog at 1 to 2 mg/kg, iv; format: ADME, organism-based, Canis lupus familiaris; design: dose 1-2 mg/kg, route intravenous; conditions: in vivo
[12] = Oral bioavailability in male dog at 2 to 5 mg/kg; format: ADME, organism-based, Canis lupus familiaris; conditions: in vivo
[13] = Clearance in female dog at 1 to 2 mg/kg, iv; format: ADME, organism-based, Canis lupus familiaris; design: dose 1-2 mg/kg, route intravenous; conditions: in vivo
[14] = Volume of distribution at steady state in female dog at 1 to 2 mg/kg, iv; format: ADME, organism-based, Canis lupus familiaris; design: dose 1-2 mg/kg, route intravenous; conditions: in vivo, read-out: Vdss
[15] = Half life in female dog at 1 to 2 mg/kg, iv; format: ADME, organism-based, Canis lupus familiaris; design: dose 1-2 mg/kg, route intravenous; conditions: in vivo
[16] = Oral bioavailability in female dog at 2 to 5 mg/kg; format: ADME, organism-based, Canis lupus familiaris; conditions: in vivo

C-C chemokine receptor type 5, sequence (P51681 whole entry): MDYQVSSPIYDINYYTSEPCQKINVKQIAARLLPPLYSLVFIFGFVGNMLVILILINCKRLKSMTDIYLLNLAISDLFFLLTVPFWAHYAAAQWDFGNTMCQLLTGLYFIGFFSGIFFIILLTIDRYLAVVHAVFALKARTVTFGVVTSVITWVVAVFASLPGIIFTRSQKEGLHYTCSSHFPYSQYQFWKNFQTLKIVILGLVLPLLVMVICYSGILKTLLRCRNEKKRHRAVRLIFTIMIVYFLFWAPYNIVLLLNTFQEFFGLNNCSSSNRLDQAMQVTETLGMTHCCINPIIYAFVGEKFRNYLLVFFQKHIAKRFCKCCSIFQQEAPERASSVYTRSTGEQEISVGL

| Structure (SMILES) | IC50 [1] | microsomal CLint ([2]; liver microsomes) | logD [3] | IC50 [4] | other results |
| --- | --- | --- | --- | --- | --- |
| CCN(C(=O)Cc1ccc(S(C)(=O)=O)cc1)C1CCN(CCC(c2ccccc2)C2CCN(S(=O)(=O)CC(F)(F)F)CC2)CC1 (stereo not given) | 5.4 nM | 28 µL/min/mg | 2.2 |  |  |
| CCN(C(=O)Cc1ccc(S(C)(=O)=O)cc1)C1CCN(CC[C@@H](c2ccccc2)N2CCN(S(=O)(=O)C(F)(F)F)CC2)CC1 | 1.6 nM | 33 µL/min/mg |  | 3200 nM |  |
| CCN(C(=O)Cc1ccc(S(C)(=O)=O)cc1)C1CCN(CC[C@@H](c2ccccc2)N2CCN(S(=O)(=O)CC(F)(F)F)CC2)CC1 | 8.9 nM | 47 µL/min/mg | 1.8 | 5800 nM |  |
| CCN(C(=O)Cc1ccc(S(C)(=O)=O)cc1)C1CCN(CC[C@@H](c2ccccc2)C2CCN(S(C)(=O)=O)CC2)CC1 | 1.1 nM | 31 µL/min/mg | 1.1 | 25000 nM |  |
| CCN(C(=O)Cc1ccc(S(C)(=O)=O)cc1)C1CCN(CC[C@@H](c2ccccc2)C2CCN(S(=O)(=O)C(F)(F)F)CC2)CC1 | < 0.1 nM | 28 µL/min/mg | 3.4 | 1200 nM |  |
| CCN(C(=O)Cc1ccc(S(C)(=O)=O)cc1)C1CCN(CC[C@@H](c2cc(F)cc(F)c2)N2CCN(S(C)(=O)=O)CC2)CC1 | 3.7 nM |  | 1.2 | > 32000 nM | microsomal CLint ([2]; microsomes): 8 µL/min/mg; clearance [5]: 71 mL/min/kg; Vd [6]: 7.7 L/kg; half-life [7]: 2.4 h; bioavailability [8]: 7.3%; clearance [9]: 12 mL/min/kg; Vd [10]: 3.2 L/kg; half-life [11]: 8.3 h; bioavailability [12]: 15%; clearance [13]: 7.5 mL/min/kg; Vd [14]: 2.2 L/kg; half-life [15]: 4.7 h; bioavailability [16]: 22% |
| CCN(C(=O)Cc1ccc(S(C)(=O)=O)cc1)C1CCN(CC[C@@H](c2cccc(S(C)(=O)=O)c2)C2CCN(S(C)(=O)=O)CC2)CC1 | 794 nM |  | 0.6 |  |  |
| CCN(C(=O)Cc1ccc(S(C)(=O)=O)cc1)C1CCN(CC[C@@H](c2cccc(OC)c2)C2CCN(S(C)(=O)=O)CC2)CC1 | 5 nM | 45 µL/min/mg | 1.2 | 32000 nM |  |
| CCN(C(=O)Cc1ccc(S(C)(=O)=O)cc1)C1CCN(CC[C@@H](c2cccc(F)c2)C2CCN(S(C)(=O)=O)CC2)CC1 |  | 18 µL/min/mg |  |  |  |
| CCN(C(=O)Cc1ccc(S(C)(=O)=O)cc1)C1CCN(CC[C@@H](c2cccc(C)c2)C2CCN(S(C)(=O)=O)CC2)CC1 | 0.44 nM | 104 µL/min/mg | 1.5 |  |  |
| CCN(C(=O)Cc1ccc(S(C)(=O)=O)cc1)C1CCN(CC[C@@H](c2cc(F)cc(Cl)c2)C2CCN(S(C)(=O)=O)CC2)CC1 |  | 22 µL/min/mg | 1.6 |  |  |
| CCN(C(=O)Cc1ccc(S(C)(=O)=O)cc1)C1CCN(CC[C@@H](c2cc(C)cc(C)c2)C2CCN(S(C)(=O)=O)CC2)CC1 | < 0.1 nM | > 150 µL/min/mg | 1.9 |  |  |
| CCN(C(=O)Cc1ccc(S(C)(=O)=O)cc1)C1CCN(CC[C@@H](c2cccc(Cl)c2)C2CCN(S(C)(=O)=O)CC2)CC1 | 0.55 nM | 32 µL/min/mg | 1.8 | 7900 nM |  |
| CCN(C(=O)Cc1ccc(S(C)(=O)=O)cc1)C1CCN(CC[C@@H](c2cccc(C(F)(F)F)c2)C2CCN(S(C)(=O)=O)CC2)CC1 | 3.5 nM | 17 µL/min/mg | 1.9 | 7900 nM |  |
| CCN(C(=O)Cc1ccc(S(C)(=O)=O)cc1)C1CCN(CC[C@@H](c2cc(Cl)cc(Cl)c2)C2CCN(S(C)(=O)=O)CC2)CC1 | < 0.1 nM |  | 2.6 | 6500 nM |  |
